The target in test [1] is Casein kinase 1, delta tv1 (Sus scrofa, UniProt M3VH47). Nature of the test: Inhibition of Sus scrofa (pig) casein kinase 1delta/epsilon isolated from brain using RRKHAAIGpSAYSITA and [gamma33P]ATP as substrate after 30 min by scintillation counting.
Test [2] concerns the target Cyclin-dependent kinase 5/CDK5 activator 1 (Homo sapiens, UniProt Q00535). Nature of the test: Inhibition of human recombinant CDK5/p25 using histone H1 and [gamma33P]ATP as substrate after 30 min by scintillation counting. The class given is protein-complex assay.
Test [3] has as its target Cyclin-dependent kinase 2/cyclin A (Homo sapiens, UniProt P24941). Nature of the test: Inhibition of human recombinant CDK2/cyclin A using histone H1 and [gamma33P]ATP as substrate after 30 min by scintillation counting. The class given is protein-complex assay.
Test [4] concerns the target Glycogen synthase kinase-3 (Sus scrofa, UniProt B2LUN4+I6LNT8). Nature of the test: Inhibition of Sus scrofa (pig) glycogen synthase kinase 3alpha/beta isolated from brain using YRRAAVPPSPSLSRHSSPHQpSEDEEE and [gamma33P]ATP as substrate after 30 min by liquid scintillation counting.
Test [5] concerns the target Cyclin-dependent kinase 5 (Homo sapiens, UniProt Q00535). Nature of the test: Inhibition of CDK5 (unknown origin).
The target of test [6] is T1, G2/mitotic-specific cyclin-B (Asterina pectinifera, UniProt P18063).
T1 sequence (P18063 whole entry): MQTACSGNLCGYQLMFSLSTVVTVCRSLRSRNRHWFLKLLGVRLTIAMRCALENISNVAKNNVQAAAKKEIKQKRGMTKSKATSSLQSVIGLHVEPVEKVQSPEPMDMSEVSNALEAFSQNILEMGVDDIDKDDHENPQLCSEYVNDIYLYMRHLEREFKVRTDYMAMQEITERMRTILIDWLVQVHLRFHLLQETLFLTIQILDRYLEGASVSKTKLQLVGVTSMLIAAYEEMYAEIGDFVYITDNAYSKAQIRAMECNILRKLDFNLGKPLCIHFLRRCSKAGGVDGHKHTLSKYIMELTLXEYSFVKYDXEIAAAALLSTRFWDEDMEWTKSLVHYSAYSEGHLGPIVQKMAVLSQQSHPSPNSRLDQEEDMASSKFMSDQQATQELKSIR
Nature of the test: Inhibition of Asteroidea (starfish) Cyclin-dependent kinase 1/cyclin B isolated from oocyte using histone H1 and [gamma33P]ATP as substrate after 30 min by scintillation counting.

Test [7] has as its target Dual specificity tyrosine-phosphorylation-regulated kinase 1A (Homo sapiens, UniProt Q13627). Nature of the test: Inhibition of Homo sapiens (human) recombinant GST-tagged DYRK1A expressed in Escherichia coli using KKISGRLSPIMTEQ and [gamma33P]ATP as substrate after 30 min by scintillation counting.

The values that follow come from ChEMBL document CHEMBL3045291, “Synthesis and evaluation of new potent inhibitors of CK1 and CDK5, two kinases involved in Alzheimers disease” (Med Chem Res, 2013).

Casein kinase 1, delta tv1, sequence (M3VH47 whole entry): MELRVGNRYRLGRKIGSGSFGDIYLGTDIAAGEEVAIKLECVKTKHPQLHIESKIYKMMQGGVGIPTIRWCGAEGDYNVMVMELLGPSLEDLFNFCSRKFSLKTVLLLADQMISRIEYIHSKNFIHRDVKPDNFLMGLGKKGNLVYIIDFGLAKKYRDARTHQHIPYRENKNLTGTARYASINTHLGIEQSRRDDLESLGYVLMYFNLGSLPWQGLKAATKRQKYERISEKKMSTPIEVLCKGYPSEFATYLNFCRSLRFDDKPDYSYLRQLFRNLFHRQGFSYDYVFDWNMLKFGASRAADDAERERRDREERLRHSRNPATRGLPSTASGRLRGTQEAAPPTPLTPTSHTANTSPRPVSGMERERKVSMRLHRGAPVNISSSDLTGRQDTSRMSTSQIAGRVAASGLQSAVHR
Cyclin-dependent kinase 5/CDK5 activator 1, sequence (Q00535 whole entry): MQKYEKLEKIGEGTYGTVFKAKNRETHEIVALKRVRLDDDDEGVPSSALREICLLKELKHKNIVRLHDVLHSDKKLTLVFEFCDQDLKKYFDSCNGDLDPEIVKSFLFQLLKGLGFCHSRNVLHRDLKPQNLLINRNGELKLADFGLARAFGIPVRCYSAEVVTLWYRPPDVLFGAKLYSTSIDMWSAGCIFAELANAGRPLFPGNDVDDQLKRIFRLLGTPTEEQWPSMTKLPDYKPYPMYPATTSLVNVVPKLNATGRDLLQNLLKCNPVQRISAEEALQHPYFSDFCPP
Cyclin-dependent kinase 5/CDK5 activator 1, sequence (Q15078 whole entry, further chain): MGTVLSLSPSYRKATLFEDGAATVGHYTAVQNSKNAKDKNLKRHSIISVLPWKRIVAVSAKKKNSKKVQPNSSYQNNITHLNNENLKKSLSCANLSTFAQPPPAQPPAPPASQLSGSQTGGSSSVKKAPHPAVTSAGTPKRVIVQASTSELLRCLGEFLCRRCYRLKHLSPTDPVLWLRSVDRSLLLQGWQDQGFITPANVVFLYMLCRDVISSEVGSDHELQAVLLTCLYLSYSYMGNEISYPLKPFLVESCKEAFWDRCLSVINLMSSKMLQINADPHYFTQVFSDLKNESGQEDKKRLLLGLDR
Cyclin-dependent kinase 5, sequence (Q00535 whole entry): as the sequence (Q00535 whole entry) above

As to `CC(C)n1cnc2c(Nc3ccc(-c4cncnc4)cc3)nc(NC(CO)CO)nc21`, the values for the IC50 in test [1], in test [2] and in test [3] were 0.64 µM, 0.19 µM and 0.33 µM, respectively.

`CC(C)n1cnc2c(Nc3cccc(-c4cncnc4)c3)nc(Cl)nc21`: the IC50 is 0.38 µM in test [1], 1 µM in test [2] and greater than 10 µM in test [4].

As to `CC(C)n1cnc2c(Nc3ccc(-c4cncnc4)cc3)nc(NC(C)(C)CO)nc21`, the IC50 in test [1] is 0.5 µM; in test [2], 0.11 µM; in test [3] it was 0.2 µM.

Consider `CC(C)n1cnc2c(Nc3cccc(-c4ncccn4)c3)nc(NC(C)(C)CO)nc21`, for which the figures for the IC50 in test [1] and in test [2] were 0.05 µM and 0.11 µM, respectively.

In the case of `CC(C)n1cnc2c(Nc3cccc(-c4cncnc4)c3)nc(NC(C)(C)CO)nc21`, the results for the IC50 in test [1], in test [2] and in test [3] were 0.32 µM, 0.11 µM and 0.11 µM, respectively.

In the case of `CC(C)n1cnc2c(Nc3ccc(-c4cncnc4)cc3)nc(Cl)nc21`, the IC50 in test [1] is 0.41 µM; in test [2], 2.1 µM; in test [3], 1.1 µM; in test [4], greater than 10 µM.

In test [5], `NC1=NC(=O)/C(=C2\CCNC(=O)c3[nH]c(Br)cc32)N1` [HYMENIALDISINE] displayed an IC50 of 0.03 µM.

For `CC(C)n1cnc2c(Nc3cccc(-c4ncccn4)c3)nc(NC(CO)CO)nc21`, the IC50 in test [1] was determined as 0.07 µM; in test [2] it was 0.62 µM.

Turning to `CC(C)n1cnc2c(Nc3cccc(-c4ncccn4)c3)nc(Cl)nc21`, the IC50 in test [1] is 0.06 µM; in test [2], 1.9 µM; in test [3] it was 1.9 µM; in test [6] it was 10 µM; in test [7], greater than 10 µM; in test [4] it was greater than 10 µM.
